Measurements reported in US12116343B2, “Inhibitors of APOL1 and methods of using same” (Vertex Pharmaceuticals Incorporated, priority 2020, dated 2024).

molecular target: T1, G1 APOL1 (Homo sapiens, UniProt O14791, I384M/S342G); assay: Acute APOL1 Thallium Assay with inducible stable clones of HEK 293 cells; assay type: cell-based; details: HEK 293 T-Rex cells expressing G1 APOL1; read-out: Thallium Assay (IC50)
T1 construct: expressed in transfected cells
T1 sequence (O14791 28-398 S342G/I384M): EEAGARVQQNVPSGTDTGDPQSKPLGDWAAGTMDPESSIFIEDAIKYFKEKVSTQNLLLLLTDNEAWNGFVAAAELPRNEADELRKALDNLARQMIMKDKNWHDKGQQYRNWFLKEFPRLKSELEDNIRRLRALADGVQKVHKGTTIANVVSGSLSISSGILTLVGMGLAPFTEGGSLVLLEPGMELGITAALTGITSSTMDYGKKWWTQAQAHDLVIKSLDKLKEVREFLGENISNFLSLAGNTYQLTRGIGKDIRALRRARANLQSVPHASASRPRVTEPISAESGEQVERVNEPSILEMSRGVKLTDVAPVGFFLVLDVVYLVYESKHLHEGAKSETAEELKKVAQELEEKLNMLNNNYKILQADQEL
Procedure, shortened: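 Readout: Tl+-triggered fluorescence, FLIPR, reflecting potassium flux through APOL1 pores after cells take up an AM-ester thallium indicator. Cells: HEK T-Rex stable clone G1 DC3.25, APOL1 G1 induced by tetracycline, seeded 26000 per well.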

`CC1CC(NC(=O)[C@H]2C[C@H](c3c(-c4ccc(F)cc4)[nH]c4c(F)cc(F)cc43)C2)C(=O)O1` (stereo partly shown) [Compound 207] and `O=C1N[C@H](CO)C[C@@H]1NC(=O)[C@H]1C[C@H](c2c(-c3ccc(F)cc3)[nH]c3c(F)cc(F)cc32)C1` [Compound 209] cannot be ordered by IC50: > 1 µM for the first, > 1 µM for the second.

`O=C1NCCC1CNC(=O)[C@H]1C[C@H](c2c(-c3ccc(F)cc3)[nH]c3c(F)cc(F)cc32)C1` (stereo partly shown) [Compound 208] and `O=C(NC[C@@H](O)CO)[C@H]1C[C@H](c2c(-c3ccc(F)cc3)[nH]c3c(F)cc(F)cc32)C1` [Compound 224] cannot be ordered by IC50: > 1 µM for the first, > 1 µM for the second.

`O=C([C@H]1C[C@H](c2c(-c3ccc(F)cc3)[nH]c3c(F)cc(F)cc32)C1)N1CCC[C@H]1CO` [Compound 210] and `O=C([C@H]1C[C@H](c2c(-c3ccc(F)cc3)[nH]c3c(F)cc(F)cc32)C1)N1CCOC[C@H]1CO` [Compound 217] cannot be ordered by IC50: > 1 µM for the first, > 1 µM for the second.

First: C[C@]1(NC(=O)[C@H]2C[C@H](c3c(-c4ccc(F)cc4)[nH]c4c(F)cc(F)cc43)C2)C[C@@H](O)C1 [Compound 211]
Second: O=C(N[C@H]1CNC[C@@H]1O)[C@H]1C[C@H](c2c(-c3ccc(F)cc3)[nH]c3c(F)cc(F)cc32)C1 [Compound 212]
The IC50 of the first is lower: 0.25 to 1 µM for the first, > 1 µM for the second.

First: CS(=O)(=O)NC(=O)[C@H]1C[C@H](c2c(-c3ccc(F)cc3)[nH]c3c(F)cc(F)cc32)C1 [Compound 213]
Second: NC(=O)C1CC(c2c(-c3ccc(F)cc3)[nH]c3c(F)cc(F)cc23)C1 (stereo not shown) [Compound 278, 3-[5,7-difluoro-2-(4-fluorophenyl)-1H-indol-3-yl]cyclobutanecarboxamide]
The IC50 of the first is higher: > 1 µM for the first, 0.25 to 1 µM for the second.

`CC(C)(O)C(O)CNC(=O)[C@H]1C[C@H](c2c(-c3ccc(F)cc3)[nH]c3c(F)cc(F)cc32)C1` (stereo partly shown) [Compound 215] and `O=C(NC[C@H](O)CO)[C@H]1C[C@H](c2c(-c3ccc(F)cc3)[nH]c3c(F)cc(F)cc32)C1` [Compound 225] cannot be ordered by IC50: > 1 µM for the first, > 1 µM for the second.

Compared with `O=C([C@H]1C[C@H](c2c(-c3ccc(F)cc3)[nH]c3c(F)cc(F)cc32)C1)N1CCOC[C@@H]1CO` [Compound 219], `COC[C@@H]1CCN1C(=O)[C@H]1C[C@H](c2c(-c3ccc(F)cc3)[nH]c3c(F)cc(F)cc32)C1` [Compound 220] is higher in IC50: 0.25 to 1 µM for the first, > 1 µM for the second. The first is the more potent here.

Going from `NC(=O)[C@@H](CO)NC(=O)[C@H]1C[C@H](c2c(-c3ccc(F)cc3)[nH]c3c(F)cc(F)cc32)C1` [Compound 221] to `O=C([C@H]1C[C@H](c2c(-c3ccc(F)cc3)[nH]c3c(F)cc(F)cc32)C1)N1CC(CO)C1` [Compound 223], the IC50 rises from < 0.25 µM to > 1 µM.

First: COC[C@@H]1CCN1C(=O)[C@H]1C[C@H](c2c(-c3ccc(F)cc3)[nH]c3c(F)cc(F)cc32)C1 [Compound 222]
Second: O=C([C@H]1C[C@H](c2c(-c3ccc(F)cc3)[nH]c3c(F)cc(F)cc32)C1)N1C[C@@H](O)[C@H](O)C1 [Compound 227]
The IC50 of the first is lower: 0.25 to 1 µM for the first, > 1 µM for the second. The first is the more potent here.

`O=C1CN(C(=O)[C@H]2C[C@H](c3c(-c4ccc(F)cc4)[nH]c4c(F)cc(F)cc43)C2)CCN1` [Compound 228] was tested, and the IC50 was > 1 µM.
